Experimental data: article PMC9025941, “Influence of the Type of Amino Acid on the Permeability and Properties of Ibuprofenates of Isopropyl Amino Acid Esters” (International Journal of Molecular Sciences, 2022)
“And” between values parts separate entries of the source, which are not always exact repeats. Equal entries are not always repeated. Where two headings read alike, the source gives them in different places. Marks after values point to notes of the source that are not given here.

Columns and labels:
[1] = Thermal stability (TG/DTG): decomposition onset and maximum mass-loss rate temperature
Experimental: In Figure 5, the thermal stability of ibuprofen and amino acid isopropyl ester ibuprofenates was determined and compared. All TG, DTG, and c-DTA curves are in the Supplementary Materials (Figures S87–S100). The decomposition onset temperature (Tonset) and the temperature of the maximum rate of mass loss (Tmax) were determined.

[2] = 24 h penetration, n = 3
[3] = In vitro skin permeation, Franz diffusion cells; conditions: for Q%24 h, the percentage of the applied dose permeated after 24 h / Cumulative Permeation Mass / LT, lag time: n = 3; for Q%24 h, the percentage of the applied dose permeated after 24 h / Cumulative Permeation Mass: 24 h; for EF, enhancement factor: relative to IBU; for JSS, steady-state flux: saturated solution in PBS pH 7.4, n = 3
[4] = Solubility in organic solvents by modified Vogel's method; conditions: 25 °C
[5] = n-octanol-water partition coefficient, shake flask method; conditions: for Log P (n-octanol-water partition coefficient): shake flask, 25 °C
[6] = Solubility (saturation concentration) in deionised water and PBS pH 7.4, HPLC; conditions: for Solubility in Phosphate Buffer pH = 7.4: PBS pH 7.4, 32 °C; for Solubility in Water: 25 °C
[7] = pH 7.4
[8] = shake flask; cited from earlier work
[9] = 25 °C; cited from earlier work
[10] = cited from earlier work; for Solubility in Phosphate Buffer pH = 7.4: PBS pH 7.4, 32 °C; for Solubility in Water: 25 °C
[11] = 37 °C, cited from earlier work
[12] = design: method as in PMID 35516534; conditions: determined log P range; cited from earlier work
[13] = saturated solution in PBS pH 7.4, mass of compound
[14] = saturated solution in PBS pH 7.4, mass of ibuprofen

CC(C)Cc1ccc(C(C)C(=O)O)cc1.CC(C)OC(=O)C[C@H](N)C(=O)OC(C)C [[L-Asp(OiPr)2][IBU], L-aspartic acid isopropyl ester ibuprofenate]
Tonset, the onset temperature of the thermal degradation [1]: 141.7 °C
Accumulation in the skin [2]: 406.961 ± 17.799 µg IBU g^−1
Q%24 h, the percentage of the applied dose permeated after 24 h [3]: 27.307 ± 2.851%
Cumulative Permeation Mass [3, 13]: 812.658 ± 12.545 ^b µg·cm^−2
Cumulative Permeation Mass [3, 14]: 395.800 ± 41.320 ^b µg IBU·cm^−2
LT, lag time [3]: 1.010 ± 0.054 h
EF, enhancement factor [3]: 3.69
JSS, steady-state flux [3]: 55.063 ± 1.425 µg IBU cm^−2 h^−1
Solubility in DMSO [4]: + (soluble >100 mg cm^−3)
Solubility in chloroform [4]: + (soluble >100 mg cm^−3)
Solubility in dichloromethane [4]: + (soluble >100 mg cm^−3)
Solubility in diethyl ether [4]: +/− (partially soluble 33–100 mg cm^−3)
Solubility in ethanol [4]: + (soluble >100 mg cm^−3)
Solubility in ethyl acetate [4]: + (soluble >100 mg cm^−3)
Solubility in n-hexane [4]: − (insoluble <33 mg cm^−3)
Solubility in toluene [4]: + (soluble >100 mg cm^−3)
Log P (n-octanol-water partition coefficient) [5]: 1.506 ± 0.001
Solubility in Phosphate Buffer pH = 7.4 ([6]; g of active compound (IBU)): 1.449 ± 0.009 g IBU∙dm^−3
Solubility in Phosphate Buffer pH = 7.4 ([6]; g of compound): 2.976 ± 0.018 g∙dm^−3
Solubility in Water ([6]; g of active compound (IBU)): 1.159 ± 0.001 g IBU∙dm^−3
Solubility in Water ([6]; g of compound): 2.380 ± 0.003 g∙dm^−3

CC(C)Cc1ccc(C(C)C(=O)O)cc1.CSCC[C@H](N)C(=O)OC(C)C [[L-MetOiPr][IBU], L-methionine isopropyl ester ibuprofenate]
Tonset, the onset temperature of the thermal degradation [1]: 146.2 °C
JSS, steady-state flux [7]: 25.312 ± 0.661 µg IBU cm^−2 h^−1

CC(C)Cc1ccc(C(C)C(=O)O)cc1.CC(C)OC(=O)[C@@H](N)[C@@H](C)O [[L-ThrOiPr][IBU], L-threonine isopropyl ester ibuprofenate]
Tonset, the onset temperature of the thermal degradation [1]: 129.6 °C
Accumulation in the skin [2]: 621.866 ± 112.163 µg IBU g^−1
Q%24 h, the percentage of the applied dose permeated after 24 h [3]: 11.294 ± 0.505%
Cumulative Permeation Mass [3, 13]: 714.248 ± 38.838 ^b µg·cm^−2
Cumulative Permeation Mass [3, 14]: 400.942 ± 17.921 ^b µg IBU·cm^−2
LT, lag time [3]: 1.339 ± 0.177 h
EF, enhancement factor [3]: 1.52
JSS, steady-state flux [3]: 59.631 ± 6.900 µg IBU cm^−2 h^−1
Log P (n-octanol-water partition coefficient) [5]: 0.998 ± 0.001

CC(C)Cc1ccc(C(C)C(=O)O)cc1.CC[C@H](C)[C@H](N)C(=O)OC(C)C [[L-IleOiPr][IBU], L-isoleucine isopropyl ester ibuprofenate]
Tonset, the onset temperature of the thermal degradation [1]: 105.2 °C
Accumulation in the skin [2]: 646.293 ± 123.070 µg IBU g^−1
Q%24 h, the percentage of the applied dose permeated after 24 h [3]: 2.318 ± 0.118%
Cumulative Permeation Mass [3, 13]: 173.888 ± 8.815 ^b µg·cm^−2
Cumulative Permeation Mass [3, 14]: 94.512 ± 4.791 ^b µg IBU·cm^−2
LT, lag time [3]: 1.617 ± 0.057 h
EF, enhancement factor [3]: 0.31
JSS, steady-state flux [3]: 9.545 µg IBU cm^−2 h^−1 and 9.545 ± 0.239 µg IBU cm^−2 h^−1
Solubility in DMSO [4]: + (soluble >100 mg cm^−3)
Solubility in chloroform [4]: + (soluble >100 mg cm^−3)
Solubility in dichloromethane [4]: + (soluble >100 mg cm^−3)
Solubility in diethyl ether [4]: +/− (partially soluble 33–100 mg cm^−3)
Solubility in ethanol [4]: + (soluble >100 mg cm^−3)
Solubility in ethyl acetate [4]: + (soluble >100 mg cm^−3)
Solubility in n-hexane [4]: − (insoluble <33 mg cm^−3)
Solubility in toluene [4]: + (soluble >100 mg cm^−3)
Log P (n-octanol-water partition coefficient) [5]: 1.652 ± 0.008
Solubility in Phosphate Buffer pH = 7.4 ([6]; g of active compound (IBU)): 2.562 ± 0.010 g IBU∙dm^−3
Solubility in Phosphate Buffer pH = 7.4 ([6]; g of compound): 4.713 ± 0.018 g∙dm^−3
Solubility in Water ([6]; g of active compound (IBU)): 1.483 ± 0.098 g IBU∙dm^−3
Solubility in Water ([6]; g of compound): 2.729 ± 0.180 g∙dm^−3

CC(C)Cc1ccc(C(C)C(=O)O)cc1.CC(C)OC(=O)[C@@H](N)C(C)C [[L-ValOiPr][IBU], L-valine isopropyl ester ibuprofenate]
Log P (n-octanol-water partition coefficient) [8]: 1.154 ± 0.004 [31]
Solubility in DMSO [9]: + [31] (soluble >100 mg cm^−3)
Solubility in chloroform [9]: + [31] (soluble >100 mg cm^−3)
Solubility in dichloromethane [9]: + [31] (soluble >100 mg cm^−3)
Solubility in diethyl ether [9]: +/− [31] (partially soluble 33–100 mg cm^−3)
Solubility in ethanol [9]: + [31] (soluble >100 mg cm^−3)
Solubility in ethyl acetate [9]: +/− [31] (partially soluble 33–100 mg cm^−3)
Solubility in n-hexane [9]: − [31] (insoluble <33 mg cm^−3)
Solubility in toluene [9]: + [31] (soluble >100 mg cm^−3)
Solubility in Phosphate Buffer pH = 7.4 ([10]; g of active compound (IBU)): 2.821 ± 0.018 [31] g IBU∙dm^−3
Solubility in Phosphate Buffer pH = 7.4 ([10]; g of compound): 4.998 ± 0.018 [31] g∙dm^−3
Solubility in Water ([10]; g of active compound (IBU)): 1.957 ± 0.007 [31] g IBU∙dm^−3
Solubility in Water ([10]; g of compound): 3.468 ± 0.007 [31] g∙dm^−3
Q%24 h, the percentage of the applied dose permeated after 24 h [3]: 13.698 ± 1.123%
Cumulative Permeation Mass [3, 13]: 684.642 ± 56.109 ^b µg·cm^−2
Cumulative Permeation Mass [3, 14]: 386.391 ± 31.666 ^b µg IBU·cm^−2
EF, enhancement factor [3]: 1.85
JSS, steady-state flux [3]: 43.749 ± 2.445 µg IBU cm^−2 h^−1

CC(C)Cc1ccc(C(C)C(=O)O)cc1.CC(C)OC(=O)[C@@H](N)CO [[L-SerOiPr][IBU], L-serine isopropyl ester ibuprofenate]
Tonset, the onset temperature of the thermal degradation ([1]; TG): 139.2 °C
Accumulation in the skin [2]: 407.652 ± 74.170 µg IBU g^−1
Q%24 h, the percentage of the applied dose permeated after 24 h [3]: 11.035 ± 0.500%
LT, lag time [3]: 1.160 ± 0.081 h
EF, enhancement factor [3]: 1.49
JSS, steady-state flux [3]: 66.106 µg IBU cm^−2 h^−1 and 66.106 ± 2.925 µg IBU cm^−2 h^−1
Solubility in ethyl acetate [4]: +/− (partially soluble 33–100 mg cm^−3)
Solubility in toluene [4]: − (insoluble <33 mg cm^−3)
Log P (n-octanol-water partition coefficient) [5]: 0.775 ± 0.008

CC(C)Cc1ccc(C(C)C(=O)O)cc1 (racemic) [IBU, (RS)-2-(4-(2-methylpropyl)phenyl)propanoic acid, reference compound]
Tonset, the onset temperature of the thermal degradation ([1]; TG): 189.8 °C
solubility ([11]; pH 1): 0.038 mg·cm^−3
solubility ([11]; pH 4.5): 0.084 mg·cm^−3
solubility ([11]; pH 5.5): 0.685 mg·cm^−3
solubility ([11]; pH 6.8): 3.37 mg·cm^−3
log P [12]: 2.41–4.00
Q%24 h, the percentage of the applied dose permeated after 24 h [3]: 7.408 ± 0.648%
Cumulative Permeation Mass [3, 13]: 32.001 ± 3.167 ^a µg·cm^−2
Cumulative Permeation Mass [3, 14]: 32.001 ± 2.801 ^a µg IBU·cm^−2
LT, lag time [3]: 1.399 ± 0.145 h
Papp ([3]; pig, pH 7.4): 1.94 ×10⁻⁶ cm/s
EF, enhancement factor [3]: 1.00
JSS, steady-state flux [3]: 3.017 ± 0.209 µg IBU cm^−2 h^−1
JSS, steady-state flux ([3]; listed as ibuprofen): 3.017 µg IBU cm^−2 h^−1
logP at 3 h ([5]; n-octanol/water): 3.208 ± 0.002
